Values joined by “and” are separate entries in the source; they are usually repeats but may differ in a detail not shown here. Equal values may be shown once.
How the values were obtained:
[1] = system: Lewis lung carcinoma (LLC); test: Antitumor and antimetastatic effect in the Lewis lung carcinoma model; type: in vivo, mice; details: for average number of metastases in the lungs / average primary node (tumor) weight / tumor growth inhibition (TGI): C57BL mice with LLC; for average number of metastases in the lungs / average primary node (tumor) weight: day 18, mean ± SD; for average primary node (tumor) weight: single dose; for tumor growth inhibition (TGI): vs intact control; for number of metastases in the lungs / tumor weight: individual animals; for effect on the number of metastases in the lungs (in words): monotherapy, Tpc 1 mg/kg i/p, 7 50 mg/kg i/p or i/g
Source text: Compound 7 is a hybrid of two compounds: leaders in their subclasses of usnic acid derivatives 1 and 4 [28, 32]. We studied the ability of compound 7 to sensitize the effect of topotecan on murine Lewis lung carcinoma (LLC) (Tpc + 7, Figure 3). The LLC cell line was maintained as a transplantable strain in mice and was provided by the cell depository of the Institute of Cytology and Genetics SB RAS (Novosibirsk, Russia). […] Subcutaneous transplantation leads to the development of a primary node at the injection site and the appearance of metastases in the lungs on days 17–21 [47]. The size of the primary tumor was determined as the difference in the weight of the healthy limb and the limb with the tumor after the mice were removed from the experiment on 18th day after LLC transplantation.
Female C57BL mice with a body weight of ~19–21 g were used in the study. Mice were housed in plastic cages with a wood chip bedding and had free access to water and food. Lewis lung carcinoma (LLC) and Krebs-2 ascites were used as experimental tumor models. The transplantable tumors were obtained from the cell bank of the Institute of Cytology and Genetics (Novosibirsk, Russia). The LLC mouse model is the most common model of lung cancer; LLC cells remain tumorigenic and capable of metastasis into the lung in C57BL mice. Tumor tissue was minced and resuspended in 0.9% NaCl prior to grafting. LLC was injected into the right thigh of mice at 800,000 cells in 0.2 mL per mouse.
Previously, we divided the animals into 6 groups of 6–7 individuals in each, the treatment was carried out once 7 days after tumor transplantation: • - Group 1—Intact control—mice of this group were inoculated with a tumor, receiving 0.2 mL of saline intraperitoneally; • - Group 2—DMSO-Tween-80—mice were injected once intragastrically with a probe 200 μL of a solution containing saline, Tween-80 (10%) and DMSO (15%), a solvent for 7; • - Group 3—Tpc (aqueous solution)—mice were injected once intraperitoneally with 200 µL of Tpc at a single dose of 1 mg/kg; • - Group 4—Tpc + 7 i/g—mice received Tpc once as described for group 3 and 7 in the form of 200 µL of suspension (Tween-80 (10%) and DMSO (15%) in saline) once intragastrically at a dose of 50 mg/kg; • - Group 5—7 i/g—mice were injected with 7 as described for group 4; • - Group 6—Tpc + 7 i/p—mice were injected with topotecan once as described for groups 3 and 7 in the form of 200 µL of suspension (Tween-80 (10%) and DMSO (15%) in saline) once intraperitoneally at a dose of 50 mg/kg; • - Group 7—7 i/p—mice were injected with 7 as for group 6.
The substances were administered as a single injection in a volume of 0.2 mL on day 13 after tumor grafting. The anticancer effect was evaluated by the primary tumor growth and the number of metastases in the lungs of all mice. Metastases were counted after fixation in 10% formalin under an MBI-3 microscope (LOMO, Saint Petersburg, Soviet Union) at a threefold magnification.

[2] = Toxic effect in mice with LLC (body weight, liver and spleen indices)
Source text: We also studied the effect of topotecan, compound 7, and their combinations on changes in body weight of mice with LLC from days 1 to 18 after tumor transplantation and of mice with Krebs-2 carcinoma from days 1 to 8.
In addition, at the end of the experiments, we removed and weighed the liver and spleen, and calculated the liver and spleen indices.
The toxic effects of the substances were inferred from the changes in body weight during the experiment (the mice with LLC were weighed on days 1, 3, 5, 7, 10, 12, 14, 16, and 18 after grafting) and the liver and spleen weight indices at the end of the experiment.

[3] = MTT cytotoxicity test, MCF-7; type: cell-based; details: human, MCF-7 cells (breast cancer), read-out: semitoxic concentration (CC50), MCF-7
Source text: (§1) Compounds 6 and 8 with a bromophenol residue in the enamine fragment have a weak or moderate effect on cell survival (Table 1 and Supplementary Figure S1).
(§2) Cytotoxicity of the compounds against human tumor cell lines: HeLa (cervical cancer), HCT-116 (colorectal cancer), A-549 (lung cancer), MCF-7 (breast cancer), T98G (glioblastoma), HepG2 (hepatocarcinoma), and nontumor cell lines: MRC-5 (lung fibroblasts) and HEK293A (human embryonic kidney) was examined using the MTT test. HCT-116 and MRC-5 cell lines were provided by the Cell Culture Bank of the State Research Center for Virology and Biotechnology Vector, Novosibirsk, Russia. A-549, MCF-7, and T98G cell lines were obtained from the Russian Cell Culture Collection (RCCC) Institute of Cytology RAS (St. Petersburg, Russia). HEK293A cells were purchased (ThermoFisher Scientific, Waltham, MA, USA).
(§3) The cell culture medium DMEM medium (Invitrogen, Carlsbad, CA, USA) contained 10% fetal bovine serum (FBS) (Invitrogen), penicillin (100 units/mL), and streptomycin (100 µg/mL). Cells were seeded into 96-well plates at 5000 cells per well and grown at 37 °C and 5% CO2 in a humid atmosphere. At 30–50% confluence, the tested compounds were added to the medium to a final DMSO content of 1%. Control wells contained 1% DMSO. To determine the cytotoxicity of Tdp1 inhibitors, the cells were treated with compounds with concentrations ranging from 1 to 100 µM for 72 h at 37 °C […]. All measurements were repeated a minimum of twice.

[4] = MTT cytotoxicity test, HEK293A; type: cell-based; details: human, HEK293A cells (embryonic kidney, nontumor), read-out: semitoxic concentration (CC50), HEK293A
Source text: as §1, §2, §3

[5] = MTT cytotoxicity test, A-549; type: cell-based; details: human, A-549 cells (lung cancer), read-out: semitoxic concentration (CC50), A-549
Source text: as §1, §2, §3

[6] = Tpc 1 mg/kg i/p and/or 7 50 mg/kg i/p
[7] = 7 50 mg/kg i/g, alone or with Tpc 1 mg/kg i/p
[8] = mice with LLC, 7 50 mg/kg i/g, alone or with Tpc 1 mg/kg i/p
[9] = mice with LLC, Tpc 1 mg/kg i/p and/or 7 50 mg/kg i/p

| SMILES | average number of metastases in the lungs [1, 6] | average primary node (tumor) weight [1, 7] | average primary node (tumor) weight [1, 6] | tumor growth inhibition (TGI) [1, 7] [%] | tumor growth inhibition (TGI) [1, 6] [%] | number of metastases in the lungs [1, 8] | tumor weight [1, 8] | number of metastases in the lungs [1, 9] | tumor weight [1, 9] | effect on the growth of the primary node (in words) ([1]; mice with LLC, mono mode) | effect on the number of metastases in the lungs (in words) ([1]; mice with LLC) | changes in body weight of mice (in words) ([2]; mouse, in vivo) | organ index, Spleen (group mean) ([2]; mouse, in vivo) [%] | tolerability / acute toxic effect (in words) ([2]; mouse, in vivo) | CC50 at 72 h [3] [µM] | CC50 at 72 h [4] [µM] | CC50 at 72 h [5] [µM] | tolerability / acute toxic effect (in words) ([2]; mice with LLC and mice with Krebs-2 carcinoma) | organ index, Liver (group mean) ([2]; mouse, in vivo) [%] |
| --- | --- | --- | --- | --- | --- | --- | --- | --- | --- | --- | --- | --- | --- | --- | --- | --- | --- | --- | --- |
| C/C(NCCCc1cc(C(C)(C)C)c(O)c(C(C)(C)C)c1)=C1\C(=O)C=C2Oc3c(-c4csc(N/N=C/c5ccc(Br)cc5)n4)c(O)c(C)c(O)c3[C@@]2(C)C1=O [Compound 7, (4E)-10-{2-[(E)-2-[(4-bromophenyl)methylidene]hydrazin-1-yl]-1,3-thiazole-4-yl}-4-(1-{[3-(3,5-di-tret-butyl-4-hydroxyhenyl)propyl]amino}ethylidene)-11,13-dihydroxy-2,12-dimethyl-8-oxatricyclo [7.4.0.02,7]trideca-1(13),6,9,11-tetraen-3,5-dione] | 15,5±5,5 | 4,2±0,9 g | 3,9±0,7 g | 4.5 | 11.4 | 18 and 4 and 21 and 0 | 2.9 g and 4.5 g and 4.8 g and 3.7 g and 5.3 g | 10 and 21 | 3.4 g and 4.4 g | no effect | no effect | tendency towards an increase in the weight of animals | 1.3±0.2 | well tolerated and did not cause acute toxic effect | > 100 | > 100 | > 100 | – | – |
| CC[C@@]1(O)C(=O)OCc2c1cc1n(c2=O)Cc2cc3c(CN(C)C)c(O)ccc3nc2-1 [Tpc, topotecan] | 11,8±6,1 | – | 2,8±0,5 g | – | 36.4 | – | – | 24 and 9 and 5 | 2.9 g and 3 g and 3.4 g and 2.7 g | – | virtually no effect | tendency towards an increase in the weight of animals | 1.19±0.04 | – | – | – | – | well tolerated and did not cause acute toxic effect | 5.6±0.7 |

— publication PMC10816808, “Enhancement of the Antitumor and Antimetastatic Effect of Topotecan and Normalization of Blood Counts in Mice with Lewis Carcinoma by Tdp1 Inhibitors—New Usnic Acid Derivatives” (International Journal of Molecular Sciences, 2024)
